3 compounds from patent US11930815B1, “3,3′-(piperazine-1,4-diyl)bis(1-(naphthalen-2-yloxy)propan-2-ol) as insecticidal agent” (priority 2023, dated 2024) can be followed below.

Data set [1] has as its system 4th instars of larvae of Spodoptera littoralis. Briefly: Insecticidal bioassay screening, castor leaf dip, 4th instar larvae. Format: in vivo. The following applies: for Toxic ratio: 4th larvae, fenoxycarb's LC50/the compound's LC50 × 100. The protocol:
(§1) Five concentrations (200, 100, 50, 25, 12.5 ppm) were designed for this synthetic compound and the reference fenoxycarb compound as the dynamic ingredients based on ppm via diluting the commercial formulation.
(§2) In this experiment, castor leaves are immersed in each of the previously prepared concentrations of the components for 10 seconds and then left to dry for 60 minutes. Larvae of the second and fourth instars of each checked strain are prepared with treated leaves in gauze-covered glass containers for 72 hrs. An untreated control is made in which leaves are dipped in triton x-100 and distilled water only. Then the preserved leaves were removed & fresh, untreated leaves were provided for 72 hours. Three replicates (10 larvae each) were checked for each concentration. Daily inspection was carried out for all treatments and mortality percentages were recorded 3 days (72 hours) after treatment. The average mortality percentage was corrected employing Abbott's formula. The corrected mortality rate for each of the previously synthesized compounds is statistically calculated according to Finney (1970). Through this rate, the corresponding concentration test lines (LDP lines) are assessed. Fifty and ninety percent mortality are determined, and the regression values for the checked products were previously evaluated.

Data set [2] has as its system 2nd instars of larvae of Spodoptera littoralis. Put plainly: Insecticidal bioassay screening, castor leaf dip, 2nd instar larvae. Format: in vivo. The settings on record: for Toxic ratio: 2nd larvae, fenoxycarb's LC50/the compound's LC50 × 100. As to the method: as §1, §2
The mark [3] stands for this setting: Spodoptera littoralis, foliar, 72 h.

≈ marks a conversion by molar mass, not a printed value. Where two headings read alike, the source gives them in different places.

In general, LC50 refers to the concentration lethal to half of the exposed cells or organisms. In the case of `OC(COc1ccc2ccccc2c1)CN1CCN(CC(O)COc2ccc3ccccc3c2)CC1` (centres unmarked) [Compound 9, 3,3′-(piperazine-1,4-diyl)bis(1-(naphthalen-2-yloxy)propan-2-ol)], the Toxic ratio in data set [1] (72 h) turned out to be 49.7; in data set [2] (72 h), 6.51. Besides, the 50% lethal concentration (LC50) was 87 µg/mL (≈ 179 µM) in data set [1] (setting [3]); 42 µg/mL (≈ 86.4 µM) in data set [2] (Spodoptera littoralis, foliar, 2nd larvae of S. littoralis, after 72 h of treatment, treated castor leaves, read-out: LC50); 42 µg/mL (≈ 86.4 µM) in data set [2] (foliar, against Spodoptera littoralis under laboratory conditions, instar not stated, read-out: LC50). In data set [2] (verbal summary of Table 1, compared with fenoxycarb), the “activity against Spodoptera littoralis” value was “active”.
Regarding `OC(COc1ccc2ccccc2c1)CN1CCN(CC(O)COc2ccc3ccccc3c2)CC1` (centres unmarked) [3,3′-(piperazine-1,4-diyl)bis(1-(naphthalen-2-yloxy)propan-2-ol)], the median lethal concentration (LC50) result in data set [1] (in vivo) is on record as “about 86.98 ppm”; in data set [2] (2nd instars of larvae of Spodoptera littoralis, after 72 hours of treatment) it was “about 42.05 ppm”.
Consider `CCOC(=O)NCCOc1ccc(Oc2ccccc2)cc1` [Fenoxycarb, reference compound], for which the Toxic ratio in data set [1] (72 h) and in data set [2] (72 h) was 100 each time. In data set [2] (setting [3]), the median lethal concentration (LC50) was 2.73 µg/mL (≈ 9.06 µM).
